From patent US20110171193A1, “COMPOSITIONS AND METHODS FOR TREATING PULMONARY HYPERTENSION” (THE BOARD OF TRUSTEES OF THE UNIVERSITY OF ILLINOIS, priority 2008, published 2011)

Assays:
purified PKG-1 = biological target: T1, purified PKG-1 (Bos taurus, UniProt P00516); assay: In vitro kinase assay of purified PKG-1 after peroxynitrite or DETA NONOate; assay type: biochemical; settings: peroxynitrite at indicated concentrations, 14 min at RT
T1 construct: purchased Promega
T1 sequence (P00516 1-671): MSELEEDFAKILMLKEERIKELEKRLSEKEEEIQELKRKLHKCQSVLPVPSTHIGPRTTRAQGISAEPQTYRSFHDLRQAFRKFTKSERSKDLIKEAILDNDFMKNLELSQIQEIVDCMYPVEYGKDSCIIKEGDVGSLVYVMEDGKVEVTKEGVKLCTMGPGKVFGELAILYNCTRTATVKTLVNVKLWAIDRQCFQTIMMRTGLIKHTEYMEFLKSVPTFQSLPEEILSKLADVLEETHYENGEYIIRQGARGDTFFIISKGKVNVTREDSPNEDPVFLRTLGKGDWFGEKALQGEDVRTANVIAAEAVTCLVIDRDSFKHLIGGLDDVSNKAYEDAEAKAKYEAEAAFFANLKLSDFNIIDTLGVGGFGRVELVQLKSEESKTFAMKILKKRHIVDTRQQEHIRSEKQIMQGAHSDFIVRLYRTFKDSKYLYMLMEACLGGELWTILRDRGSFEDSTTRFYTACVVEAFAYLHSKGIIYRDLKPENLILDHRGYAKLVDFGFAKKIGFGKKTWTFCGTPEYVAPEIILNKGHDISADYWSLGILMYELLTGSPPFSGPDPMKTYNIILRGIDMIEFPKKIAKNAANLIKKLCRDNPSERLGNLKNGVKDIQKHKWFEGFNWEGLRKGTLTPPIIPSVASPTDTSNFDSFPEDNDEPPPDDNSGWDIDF
Procedure: PKG Kinase Assay. In vitro activity of PKG was determined by measuring the transfer of the [g-^32P] phosphate group of ATP to the specific PKG substrate, BPDEtide (Calbiochem) in the absence or presence of exogenous 2.5 mM cGMP as described in Example 13. PKG activity is expressed as picmoles of ^32P incorporated into PKG substrate per min per microgram protein.
(§1) To address the role of peroxynitrite in the mechanism of the observed impairment of PKG activity, we treated human pulmonary artery smooth muscle cells with 3-morpholinosydnonimine (SIN-1), the superoxide and NO donor that forms peroxynitrite simultaneously (30). […] FIG. 9A relates to dose-dependent impairment of PKG activity by peroxynitrite. Purified […] (Promega) was incubated with peroxynitrite at indicated concentrations for 14 min at RT or with DETA NONOate (NONOate) for 30 min in dark at RT. Kinase activity was then assayed. Data is expressed mean+/−SD (n=3). *, P<0.05 versus control (0 μM). FIG. 9B relates to screening of PKG-1a mutants with in vitro kinase assay. At 48 hr post-transfection, myc-tagged WT and PKG-1a mutants were immunoprecipitated with anti-myc beads and aliquoted for incubation with either peroxynitrite (100 μM) or the same amount of 0.1 N NaOH only (CTL). […] PKG activity was expressed as pmoles/min/μg cell lysates. […] Data are expressed as mean±SD (n=3), *, P<0.05 versus either PKG-1a mutant. […]

human PKG-1a = assay: Myc-tagged PKG-1a tyrosine mutants treated with peroxynitrite: kinase assay and tyrosine nitration; assay type: biochemical; settings: in contrast to wildtype PKG-1
Procedure: Identification of Nitrated Tyrosine Residues of PKG-1a. Tyrosine residue was mutated to Phenylalanine by site-directed mutagenesis following manufacture's instruction (Stratagene). Myc-tagged wild-type and mutant PKG-1a were overexpressed in human lung microvascular endothelial cells and cell lysates were then immunoprecipitated with anti-Myc for 4 hr at RT. […] Following 14 min incubation in 50 mM K2HPO4 buffer at RT, kinase activity was then measured as described above.
as §1, with “assay.” for “assay. At 48 hr post-transfection, myc-tagged WT and PKG-1a mutants were immunoprecipitated with anti-myc beads and aliquoted for incubation with either peroxynitrite (100 μM) or the same amount of 0.1 N NaOH only (CTL).”

Cav1−/− mice [1] = assay: Lung histology and muscularized distal pulmonary arteries in Cav1−/− mice; assay type: in vivo, mouse; settings: 8 month old Cav1−/− mice; 1 mg/ml in drinking water for 5 wk
Procedure: Following PBS perfusion, the lung tissues were fixed for 5 min by instillation of 10% PBS-buffered formalin through trachea catheterization at a transpulmonary pressure of 15 cm H2O. After tracheal ligation, harvested lungs were fixed with 10% PBS-buffered formalin overnight at […] with agitation. After paraffin processing, the tissues were cut into semithin 4 to […] thick, and stained with either H & E for histological analysis or an antibody against nitrotyrosine (Upstate Biotechnology) for immunohistochemistry. Immunostaining was developed with a Vectastain ABC kit (Vector Laboratories). Histology and Imaging. Lung tissues were fixed and processed for H & E staining and immunofluorescent staining. for 5 min by instillation of 10% PBS-buffered formalin through trachea catheterization at a transpulmonary pressure of 15 cm H2O, and then overnight at 4° C. with agitation. After paraffin processing, the tissues were cut into semi-thin 4 to […] thick, and stained with H & E for histological analysis. For immunofluorescent staining, antigen retrieval was performed by incubating the slides in 10 mM sodium citrate (pH 6.0) at 95° C. for 10 min. […] The anti-a-SMA-positive pulmonary arterial vessels per field (200×) were counted based on the diameter (<40 μm versus>40 μm). Twenty fields per section were randomly identified and counted. […]

Cav1−/− mice [2] = assay: RVSP in Cav1−/− mice with PH; assay type: in vivo, mouse; settings: 8 month old Cav1−/− mice; 1 mg/ml in drinking water for 5 wk
Procedure: RVSP was determined as follows. Briefly, following anesthesia, mice were prepared for catheterization. A 1.4 F pressure transducer catheter (Millar Instruments) was carefully inserted via the right external jugular vein into the right ventricle to obtain measurements of RVSP using the Acknowledge software (Biopac Systems, Inc.). To determine lung vascular resistance, mice were anesthetized and prepared for perfusion. Pulmonary arterial (Ppa) and venous (Pv) pressures were monitored continuously through the pulmonary arterial and left atrial cannula, which were connected to a pressure transducer. […] Ppa was measured at steady-state and was plotted against the flow, which was measured by weighing the effluent collected over a one-minute period. […]
To determine whether pharmacological inhibition of eNOS in Cav1^−/− mice can reverse PH, we administered N-Nitro-L-Arginine Methyl Ester (L-NAME), a NOS inhibitor, to Cav1^−/− mice following onset of PH. […] Data are expressed as mean±SD (n=5-7). *, P=0.023 WT versus Cav1^−/−;**, P=0.015 Cav-L versus Cav1^−/−; #, P>0.5 Cav-D versus Cav1^−/−. […] Data are expressed as mean±SD (n=5-7). *, P=0.002 WT versus Cav1^−/−; **, P=0.013 Cav-L versus Cav1^−/−; #, P=0.8 Cav-D versus Cav1^−/−.
Hemodynamic Measurements. RVSP was determined with a 1.4 F pressure transducer catheter (Millar Instruments) and the Acknowledge software (Biopac Systems, Inc.). […]

Row | Structure (SMILES) | PKG activity (purified PKG-1) | PKG activity following peroxynitrite treatment (human PKG-1a; PKG-1a with mutation of tyrosine residue 345 or 549, peroxynitrite 100 μM) | Tyrosine nitration following peroxynitrite treatment (human PKG-1a; PKG-1 mutants (tyrosine 345 or 549), peroxynitrite 250 μM, 14 min at RT) | Number of muscularized distal pulmonary arteries (Cav1−/− mice [1]) | RVSP (Cav1−/− mice [2])
1 | O=NOO [peroxynitrite] | decreased PKG activity in a concentration-dependent manner | no impairment of PKG activity | diminished tyrosine nitration |  | 
2 | COC(=O)[C@H](N)CCCN=C(N)N[N+](=O)[O-] [D-NAME] |  |  |  | no effect | no effect
